This note sets out measurements from US9980945B2, “Benzoisoxazole-substituted compounds as MGLUR4 allosteric potentiators, compositions, and methods of treating neurological dysfunction” (Vanderbilt University, priority 2015, dated 2018).

The EC50 is the midpoint of the concentration-response curve.

The target in the test is mGluR4 (UniProt Q14833). Description: mGluR4 potentiation assay (EC50 for potentiation at EC20 agonist; fluorometric plate reader, Ca2+ or thallium dye). In kind it is cell-based. The note with it: potentiation of mGluR4; species of receptor not given. The method, then:
The disclosed compounds and compositions can be evaluated for their ability to act as a potentiator of metabotropic glutamate receptor activity, in particular mGluR4 activity, by any suitable known methodology known in the art. For example, Chinese Hamster Ovary (CHO) cells transacted with human mGluR4 or HEK cells co-transfected with rat mGluR4 and the G-protein regulated Inwardly Rectifying Potassium channel (GIRK) were plated in clear bottom assay plates for assay in a Hamamatsu FDSS Fluorometric Plate Reader. The cells were loaded with either a Ca2+-sensitive fluorescent dye or the thallium responsive dye and the plates were washed and placed into a suitable kinetic plate reader. For human mGluR4 assays, a fluorescence baseline was established for 3-5 seconds, the disclosed compounds were then added to the cells, and the response in cells was measured. Approximately two and a half minutes later, a concentration of mGluR4 orthosteric agonist (e.g. glutamate or L-AP4) eliciting approximately 20% (EC20) of the maximal agonist response was added to the cells, and the response was measured. Two minutes later, a concentration of mGluR4 agonist (e.g. glutamate or L-AP4) eliciting 80% (EC80) of the maximal agonist response was added to the cells, and the response was measured. For rat mGluR4/GIRK experiments, a baseline was established for approximately five seconds, disclosed compounds were added, and either an EC20 or EC80 concentration of agonist was added approximately two and one half minutes later. Potentiation of the agonist response of mGluR4 by the disclosed compounds was observed as an increase in response to the EC20 concentration of agonist in the presence of compound compared to the response to agonist in the absence of compound. Similarly, antagonism of the agonist response of mGluR4 by the disclosed compounds was observed as a decrease in response to the EC80 concentration of agonist in the presence of compound compared to the response to agonist in the absence of compound.
The above described assay operated in two modes. In the first mode, a range of concentrations of the disclosed compounds are added to cells, followed by a single fixed concentration of agonist. If the compound acts as a potentiator, an EC50 so value for potentiation and a maximum extent of potentiation by the compound at this concentration of agonist is determined by non-linear curve fitting. If the compound acts as a noncompetitive antagonist, an IC50 value is determined by non-linear curve fitting. In the second mode, several fixed concentrations of the disclosed compounds are added to various wells on a plate, followed by a range in concentrations of agonist for each concentration of disclosed compound. The EC50 values for the agonist at each concentration of compound are determined by non-linear curve fitting. A decrease in the EC50 value of the agonist with increasing concentrations of the sample compound (a leftward shift of the agonist concentration-response curve) is an indication of the degree of mGluR4 potentiation at a given concentration of the sample compound. A decrease in the maximal response of the agonist with increasing concentrations of the sample compounds, with or without a rightward shift in agonist potency, is an indication of the degree of noncompetitive antagonism at mGluR4. The second mode also indicates whether the sample compounds also affect the maximum response to mGluR4 to agonists.
Turning to `CCc1noc2ccc(Nc3n[nH]c4cccnc34)cc12` [Example 25, 3-ethyl-N-(1H-pyrazolo[4,3-b]pyridin-3-yl)benzo[d]isoxazol-5-amine], the EC50 is > 10000 nM.
Consider `CCc1noc2cc(Nc3n[nH]c4ccccc34)ccc12` [Example 18, 3-ethyl-N-(1H-imdazol-3-yl)benzo[d]isoxazol-6-amine], for which the EC50 is 1940 nM.
As for `c1cnc2c(Nc3ccc4c(C5CCCC5)noc4c3)n[nH]c2c1` [Example 2, 3-cyclopentyl-N-(1H-pyrazolo[4,3-b]pyridin-3-yl)benzo[d]isoxazol-6-amine], the figure is 523 nM.
On to `c1cnc2c(Nc3ccc4c(Cc5ccc6[nH]ncc6c5)noc4c3)n[nH]c2c1` [Example 33, 3-((1H-indazol-5-yl)methyl)-N-(1H-pyrazolo[4,3-b]pyridin-3-yl)benzo[d]isoxazol-6-amine], for which the EC50 turned out to be 44 nM.
As for `Cc1noc2ccc(Nc3n[nH]c4cccnc34)cc12` [Example 22, 3-methyl-N-(1H-pyrazolo[4,3-b]pyridin-3-yl)benzo[d]isoxazol-5-amine], the figure is 76 nM; as for `CCc1noc2cc(Nc3n[nH]c4cccnc34)ccc12` [Example 16, 3-ethyl-N-(1H-pyrazolo[4,3-b]pyridin-3-yl)benzo[d]isoxazol-6-amine], 1300 nM; as for `FC(F)(F)CCc1noc2cc(Nc3n[nH]c4nccnc34)ccc12` [Example 100, N-(1H-pyrazolo[3,4-b]pyrazin-3-yl)-3-(3,3,3-trifluoropropyl)-1,2-benzoxazol-6-amine], 192 nM.
As for `CC(C)Cc1noc2cc(Nc3n[nH]c4cccnc34)ccc12` [Example 12, 3-isobutyl-N-(1H-pyrazolo[4,3-b]pyridin-3-yl)benzo[d]isoxazol-6-amine], the figure is 826 nM.
As for `CC1(COc2noc3cc(Nc4n[nH]c5cccnc45)ccc23)COC1` [Example 41, 3-[(3-methyloxetan-3-yl)methoxy]-N-(1H-pyrazolo[4,3-b]pyridin-3-yl)-1,2-benzoxazol-6-amine], the figure is 2820 nM.
With `O=C(Cc1noc2cc(Nc3n[nH]c4cccnc34)ccc12)N1CCOCC1` [Example 143, 1-morpholino-2-[6-(1H-pyrazolo[4,3-b]pyridin-3-ylamino)-1,2-benzoxazol-3-yl]ethanone], the EC50 worked out at 1360 nM.
As for `Cc1noc2cc(Nc3n[nH]c4cccnc34)ccc12` [Example 1, 3-methyl-N-(1H-pyrazolo[4,3-b]pyridin-3-yl)benzo[d]isoxazol-6-amine], the figure is 1860 nM.
In the case of `CCC(CC)c1noc2cc(Nc3n[nH]c4nccnc34)ccc12` [Example 83, 3-(1-ethylpropyl)-N-(1H-pyrazolo[3,4-b]pyrazin-3-yl)-1,2-benzoxazol-6-amine], the EC50 came to 97.1 nM.
As for `Cn1ncc2cc(Cc3noc4cc(Nc5n[nH]c6cccnc56)ccc34)ccc21` [Example 112, 3-[(1-methylindazol-5-yl)methyl]-N-(1H-pyrazolo[4,3-b]pyridin-3-yl)-1,2-benzoxazol-6-amine], the figure is 74.8 nM; as for `CC(C)(C)Cc1noc2cc(Nc3n[nH]c4cccnc34)cnc12` [Example 171, 3-(2,2-dimethylpropyl)-N-(1H-pyrazolo[4,3-b]pyridin-3-yl)isoxazolo[4,5-b]pyridin-6-amine], 801 nM.
As for `c1cnc2c(Nc3ccc4c(C5CCC5)noc4c3)n[nH]c2c1` [Example 3, 3-cyclobutyl-N-(1H-pyrazolo[4,3-b]pyridin-3-yl)benzo[d]isoxazol-6-amine], the figure is 897 nM; as for `CC1CN(c2noc3cc(Nc4n[nH]c5cccnc45)ccc23)CC(C)O1` (stereo not drawn) [Example 28, 3-(2,6-dimethylmorpholino)-N-(1H-pyrazolo[4,3-b]pyridin-3-yl)benzo[d]isoxazol-6-amine], 1860 nM.
As for `Cn1ncc2cc(Cc3noc4cc(Nc5n[nH]c6nccnc56)ccc34)ccc21` [Example 114, 3-[(1-methylindazol-5-yl)methyl]-N-(1H-pyrazolo[3,4-b]pyrazin-3-yl)-1,2-benzoxazol-6-amine], the figure is 42.3 nM; as for `Cc1ccc(OCc2noc3cc(Nc4n[nH]c5cccnc45)ccc23)cn1` [Example 175, 3-[(6-methyl-3-pyridyl)oxymethyl]-N-(1H-pyrazolo[4,3-b]pyridin-3-yl)-1,2-benzoxazol-6-amine], 588 nM; as for `CN(C(=O)Cc1noc2cc(Nc3n[nH]c4cccnc34)ccc12)c1cccnc1` [Example 158, N-methyl-2-[6-(1H-pyrazolo[4,3-b]pyridin-3-ylamino)-1,2-benzoxazol-3-yl]-N-(3-pyridyl)acetamide], 1170 nM.
As to `CC(C)c1noc2cc(Nc3n[nH]c4cccnc34)ccc12` [Example 155, 3-isopropyl-N-(1H-pyrazolo[4,3-b]pyridin-3-yl)-1,2-benzoxazol-6-amine], the EC50 worked out at 976 nM.
As for `CC(C)(C)Cc1noc2cc(Nc3n[nH]c4cccnc34)cc(F)c12` [Example 145, 3-(2,2-dimethylpropyl)-4-fluoro-N-(1H-pyrazolo[4,3-b]pyridin-3-yl)-1,2-benzoxazol-6-amine; 2,2,2-trifluoroacetate acid], the figure is 1450 nM.
As for `O=C(NC1CCC1)c1noc2cc(Nc3n[nH]c4cccnc34)ccc12` [Example 53, N-cyclobutyl-6-(1H-pyrazolo[4,3-b]pyridin-3-ylamino)-1,2-benzoxazole-3-carboxamide], the figure is 672 nM; as for `CC(C)(C)Cc1noc2c(F)c(Nc3n[nH]c4nccnc34)ccc12` [Example 164, 3-(2,2-dimethylpropyl)-7-fluoro-N-(1H-pyrazolo[3,4-b]pyrazin-3-yl)-1,2-benzoxazol-6-amine], > 30000 nM; as for `O=C(Cc1noc2cc(Nc3n[nH]c4cccnc34)ccc12)N1CCN(CC(F)(F)F)CC1` [Example 161, 2-[6-(1H-pyrazolo[4,3-b]pyridin-3-ylamino)-1,2-benzoxazol-3-yl]-1-[4-(2,2,2-trifluoroethyl)piperazin-1-yl]ethanone], 1870 nM.
As for `COc1ncc(Cc2noc3cc(Nc4n[nH]c5cccnc45)ccc23)cn1` [Example 166, 3-[(2-methoxypyrimidin-5-yl)methyl]-N-(1H-pyrazolo[4,3-b]pyridin-3-yl)-1,2-benzoxazol-6-amine], the figure is 387 nM.
`CCCC(C)c1noc2cc(Nc3n[nH]c4ncccc34)ccc12` (stereo not drawn) [Example 95, 3-(1-methylbutyl)-N-(1H-pyrazolo[3,4-b]pyridin-3-yl)-1,2-benzoxazol-6-amine]: the EC50 turned out to be 673 nM.
As for `CC(C)(C)Cc1noc2c(F)c(Nc3n[nH]c4cccnc34)ccc12` [Example 163, 3-(2,2-dimethylpropyl)-7-fluoro-N-(1H-pyrazolo[4,3-b]pyridin-3-yl)-1,2-benzoxazol-6-amine], the figure is > 30000 nM.
As for `CC(C)(C)Cc1noc2cc(Nc3n[nH]c4ncccc34)ccc12` [Example 20, 3-neopentyl-N-(1H-pyrazolo[3,4-b]pyridin-3-yl)benzo[d]isoxazol-6-amine], the figure is 3100 nM; as for `CCCCC(C)(F)c1noc2cc(Nc3n[nH]c4cccnc34)ccc12` (stereo not drawn) [Example 134, 3-(1-fluoro-1-methyl-pentyl)-N-(1H-pyrazolo[4,3-b]pyridin-3-yl)-1,2-benzoxazol-6-amine], 2660 nM.
As to `CN(Cc1ccncc1)C(=O)Cc1noc2cc(Nc3n[nH]c4cccnc34)ccc12` [Example 160, N-methyl-2-[6-(1H-pyrazolo[4,3-b]pyridin-3-ylamino)-1,2-benzoxazol-3-yl]-N-(4-pyridylmethyl)acetamide], the EC50 was 3430 nM.
As for `ClC1(c2noc3cc(Nc4n[nH]c5cccnc45)ccc23)CCC1` [Example 6, 3-(1-chlorocyclobutyl)-N-(1H-pyrazolo[4,3-b]pyridin-3-yl)benzo[d]isoxazol-6-amine], the figure is > 10000 nM; as for `CC(C)(C)C(F)c1noc2cc(Nc3n[nH]c4cccnc34)ccc12` (stereo not drawn) [Example 146, 3-(1-fluoro-2,2-dimethyl-propyl)-N-(1H-pyrazolo[4,3-b]pyridin-3-yl)-1,2-benzoxazol-6-amine], 2110 nM; as for `ClC1(c2noc3cc(Nc4n[nH]c5nccnc45)ccc23)CCC1` [Example 8, 3-(1-chlorocyclobutyl)-N-(1H-pyrazolo[3,4-b]pyrazin-3-yl)benzo[d]isoxazol-6-amine], 185 nM.
